From ChEMBL document CHEMBL5649166, “RIP3 induces apoptosis independent of pronecrotic kinase activity” (Mol Cell, 2014)
Calls of active or inactive are those of the source. No cut-off for these calls is given here.

Columns and labels:
[1] = molecular target: T1, Serine/threonine-protein kinase TBK1 (Homo sapiens) (UniProt Q9UHD2); assay: Inhibition of human TBK1 using myelin basic protein as substrate at 1 uM in presence of 32P-ATP by Hotspot assay relative to control; values are per cent of control
T1 sequence (whole entry): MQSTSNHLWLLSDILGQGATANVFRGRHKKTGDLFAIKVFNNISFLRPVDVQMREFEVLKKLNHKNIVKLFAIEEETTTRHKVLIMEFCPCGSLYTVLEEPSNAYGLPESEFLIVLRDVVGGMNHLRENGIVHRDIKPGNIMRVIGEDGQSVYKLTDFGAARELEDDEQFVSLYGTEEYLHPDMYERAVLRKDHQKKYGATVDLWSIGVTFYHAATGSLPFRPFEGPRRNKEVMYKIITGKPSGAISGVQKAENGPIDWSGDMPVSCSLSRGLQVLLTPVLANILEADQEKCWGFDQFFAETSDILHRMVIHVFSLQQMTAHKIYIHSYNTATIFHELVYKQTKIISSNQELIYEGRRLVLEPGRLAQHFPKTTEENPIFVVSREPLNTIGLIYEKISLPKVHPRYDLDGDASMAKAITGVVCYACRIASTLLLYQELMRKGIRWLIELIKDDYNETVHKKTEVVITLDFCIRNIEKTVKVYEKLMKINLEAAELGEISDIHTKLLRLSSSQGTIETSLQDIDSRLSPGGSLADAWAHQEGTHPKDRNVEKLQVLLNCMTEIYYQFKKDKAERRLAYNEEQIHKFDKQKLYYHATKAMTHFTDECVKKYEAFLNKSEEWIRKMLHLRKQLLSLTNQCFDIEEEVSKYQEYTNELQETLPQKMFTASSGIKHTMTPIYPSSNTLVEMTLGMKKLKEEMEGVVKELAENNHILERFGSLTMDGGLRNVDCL

[2] = molecular target: Vascular endothelial growth factor receptor 2 (Homo sapiens) (UniProt P35968); assay: Inhibition of human KDR/VEGFR2 using poly[Glu:Tyr] (4:1) as substrate at 1 uM in presence of 32P-ATP by Hotspot assay relative to control; values are per cent of control
[3] = molecular target: RAF proto-oncogene serine/threonine-protein kinase (Homo sapiens) (UniProt P04049); assay: Inhibition of human RAF1 using MEK1 (K97R) as substrate at 1 uM in presence of 32P-ATP by Hotspot assay relative to control; values are per cent of control
[4] = molecular target: Tyrosine-protein kinase Lck (Homo sapiens) (UniProt P06239); assay: Inhibition of human LCK using poly[Glu:Tyr] (4:1) as substrate at 1 uM in presence of 32P-ATP by Hotspot assay relative to control; values are per cent of control
[5] = system: Peritoneal macrophage cell; assay: Inhibition of TNF-alpha induced necroptosis in thioglycolate-elicited mouse peritoneal macrophage assessed as increase in cell viability at 0.04 to 1 uM incubated for 24 hrs in presence of zVAD and SMAC007 by Cell Titer-Glo luminescent cell viability assay; format: functional, cell-based; settings: dose 0.04-1 µM
[6] = molecular target: T2, Serine/threonine-protein kinase 3 (Homo sapiens) (UniProt Q13188); assay: Inhibition of human MST2/STK3 using myelin basic protein as substrate at 1 uM in presence of 32P-ATP by Hotspot assay relative to control; values are per cent of control
T2 sequence (whole entry): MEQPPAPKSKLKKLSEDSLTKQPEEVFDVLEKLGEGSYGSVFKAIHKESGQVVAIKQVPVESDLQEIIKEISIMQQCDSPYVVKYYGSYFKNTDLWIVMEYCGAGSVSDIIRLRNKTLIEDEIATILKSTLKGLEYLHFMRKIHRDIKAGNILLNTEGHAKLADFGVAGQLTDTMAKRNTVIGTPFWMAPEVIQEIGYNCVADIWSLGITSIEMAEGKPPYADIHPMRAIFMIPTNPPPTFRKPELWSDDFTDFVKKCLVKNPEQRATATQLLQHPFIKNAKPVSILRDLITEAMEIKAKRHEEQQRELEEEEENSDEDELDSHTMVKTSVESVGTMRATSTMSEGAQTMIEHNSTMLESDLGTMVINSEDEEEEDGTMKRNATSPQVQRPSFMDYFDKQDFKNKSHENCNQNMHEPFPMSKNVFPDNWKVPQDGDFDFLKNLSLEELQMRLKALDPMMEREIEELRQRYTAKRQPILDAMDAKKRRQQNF

[7] = molecular target: T3, Ephrin type-B receptor 4 (Homo sapiens) (UniProt P54760); assay: Inhibition of human EPHB4 using poly[Glu:Tyr] (4:1) as substrate at 1 uM in presence of 32P-ATP by Hotspot assay relative to control; values are per cent of control
T3 sequence (whole entry): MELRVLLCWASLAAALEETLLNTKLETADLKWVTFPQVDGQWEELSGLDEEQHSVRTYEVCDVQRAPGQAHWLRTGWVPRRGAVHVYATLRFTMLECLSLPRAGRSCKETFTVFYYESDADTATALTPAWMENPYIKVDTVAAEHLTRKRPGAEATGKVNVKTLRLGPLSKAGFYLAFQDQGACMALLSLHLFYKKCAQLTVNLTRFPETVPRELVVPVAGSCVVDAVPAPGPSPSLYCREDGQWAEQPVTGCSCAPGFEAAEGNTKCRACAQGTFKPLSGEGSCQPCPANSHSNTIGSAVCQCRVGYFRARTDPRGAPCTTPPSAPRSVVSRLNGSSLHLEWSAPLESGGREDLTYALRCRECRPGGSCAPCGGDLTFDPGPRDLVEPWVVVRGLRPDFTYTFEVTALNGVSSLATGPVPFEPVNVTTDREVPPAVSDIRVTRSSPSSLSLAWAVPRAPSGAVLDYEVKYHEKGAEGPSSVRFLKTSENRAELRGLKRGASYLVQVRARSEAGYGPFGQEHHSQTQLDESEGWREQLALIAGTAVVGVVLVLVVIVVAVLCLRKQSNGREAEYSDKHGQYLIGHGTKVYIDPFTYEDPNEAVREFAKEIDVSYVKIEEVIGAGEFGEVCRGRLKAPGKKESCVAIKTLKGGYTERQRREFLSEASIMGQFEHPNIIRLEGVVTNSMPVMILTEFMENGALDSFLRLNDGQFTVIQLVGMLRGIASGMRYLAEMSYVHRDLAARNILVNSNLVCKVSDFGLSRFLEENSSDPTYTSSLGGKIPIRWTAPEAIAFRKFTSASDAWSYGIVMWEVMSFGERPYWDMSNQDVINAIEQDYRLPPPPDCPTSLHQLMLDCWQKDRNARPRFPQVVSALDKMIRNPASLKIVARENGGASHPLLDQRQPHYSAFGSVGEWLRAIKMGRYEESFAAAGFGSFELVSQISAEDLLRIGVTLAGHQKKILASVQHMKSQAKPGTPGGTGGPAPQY

Chain of Vascular endothelial growth factor receptor 2 (Homo sapiens) (P35968 whole entry): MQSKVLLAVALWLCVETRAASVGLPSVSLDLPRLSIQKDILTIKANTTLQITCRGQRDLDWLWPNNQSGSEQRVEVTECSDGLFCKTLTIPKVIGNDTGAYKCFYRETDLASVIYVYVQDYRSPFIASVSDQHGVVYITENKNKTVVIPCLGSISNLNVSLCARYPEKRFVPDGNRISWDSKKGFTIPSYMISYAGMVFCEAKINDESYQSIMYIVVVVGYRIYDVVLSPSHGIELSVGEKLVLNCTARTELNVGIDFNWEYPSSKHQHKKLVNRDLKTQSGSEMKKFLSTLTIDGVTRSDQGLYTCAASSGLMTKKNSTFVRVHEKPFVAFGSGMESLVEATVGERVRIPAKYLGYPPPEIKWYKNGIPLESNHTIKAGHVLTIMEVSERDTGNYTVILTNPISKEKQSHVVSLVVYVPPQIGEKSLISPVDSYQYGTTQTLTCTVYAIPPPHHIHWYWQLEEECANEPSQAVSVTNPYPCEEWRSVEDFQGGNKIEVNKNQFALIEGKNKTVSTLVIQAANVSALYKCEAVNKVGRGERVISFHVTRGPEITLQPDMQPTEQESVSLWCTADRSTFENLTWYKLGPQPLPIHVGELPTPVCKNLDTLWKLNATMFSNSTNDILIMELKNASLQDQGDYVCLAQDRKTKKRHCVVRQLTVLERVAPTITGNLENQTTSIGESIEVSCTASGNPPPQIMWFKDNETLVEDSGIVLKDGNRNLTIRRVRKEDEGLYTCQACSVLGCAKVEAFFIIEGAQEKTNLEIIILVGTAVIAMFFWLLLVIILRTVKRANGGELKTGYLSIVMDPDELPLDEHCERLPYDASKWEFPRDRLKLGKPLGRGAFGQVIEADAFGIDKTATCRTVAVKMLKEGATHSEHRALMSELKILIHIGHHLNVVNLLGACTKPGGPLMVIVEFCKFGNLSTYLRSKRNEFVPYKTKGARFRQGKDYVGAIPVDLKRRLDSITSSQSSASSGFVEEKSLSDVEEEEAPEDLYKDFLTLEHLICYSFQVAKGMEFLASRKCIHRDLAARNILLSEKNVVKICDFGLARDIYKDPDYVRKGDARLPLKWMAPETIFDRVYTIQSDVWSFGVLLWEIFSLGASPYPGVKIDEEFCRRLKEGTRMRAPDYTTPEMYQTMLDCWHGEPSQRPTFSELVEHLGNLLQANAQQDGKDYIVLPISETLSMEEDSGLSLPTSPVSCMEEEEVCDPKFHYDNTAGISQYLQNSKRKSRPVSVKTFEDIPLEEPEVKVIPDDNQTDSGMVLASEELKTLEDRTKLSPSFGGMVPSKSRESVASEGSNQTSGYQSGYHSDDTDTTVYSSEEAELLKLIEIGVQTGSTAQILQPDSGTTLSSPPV
Chain of RAF proto-oncogene serine/threonine-protein kinase (Homo sapiens) (P04049 whole entry): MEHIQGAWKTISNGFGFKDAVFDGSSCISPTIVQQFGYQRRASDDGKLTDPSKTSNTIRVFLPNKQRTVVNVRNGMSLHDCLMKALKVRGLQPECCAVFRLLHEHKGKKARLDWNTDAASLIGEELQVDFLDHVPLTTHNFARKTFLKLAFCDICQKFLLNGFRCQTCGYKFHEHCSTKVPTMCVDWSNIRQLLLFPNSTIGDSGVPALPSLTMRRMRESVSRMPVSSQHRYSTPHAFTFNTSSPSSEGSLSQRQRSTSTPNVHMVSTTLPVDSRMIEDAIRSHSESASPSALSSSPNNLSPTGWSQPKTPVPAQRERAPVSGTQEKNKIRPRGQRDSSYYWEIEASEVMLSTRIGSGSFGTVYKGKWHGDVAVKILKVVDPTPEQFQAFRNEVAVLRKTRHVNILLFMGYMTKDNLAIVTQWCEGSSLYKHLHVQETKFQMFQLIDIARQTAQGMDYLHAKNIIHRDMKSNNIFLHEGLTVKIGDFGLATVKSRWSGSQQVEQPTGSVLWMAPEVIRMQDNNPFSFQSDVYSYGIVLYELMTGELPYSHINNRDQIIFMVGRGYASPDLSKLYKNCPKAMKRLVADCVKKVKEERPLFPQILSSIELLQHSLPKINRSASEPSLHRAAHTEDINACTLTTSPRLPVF
Chain of Tyrosine-protein kinase Lck (Homo sapiens) (P06239 2-509 limits assumed): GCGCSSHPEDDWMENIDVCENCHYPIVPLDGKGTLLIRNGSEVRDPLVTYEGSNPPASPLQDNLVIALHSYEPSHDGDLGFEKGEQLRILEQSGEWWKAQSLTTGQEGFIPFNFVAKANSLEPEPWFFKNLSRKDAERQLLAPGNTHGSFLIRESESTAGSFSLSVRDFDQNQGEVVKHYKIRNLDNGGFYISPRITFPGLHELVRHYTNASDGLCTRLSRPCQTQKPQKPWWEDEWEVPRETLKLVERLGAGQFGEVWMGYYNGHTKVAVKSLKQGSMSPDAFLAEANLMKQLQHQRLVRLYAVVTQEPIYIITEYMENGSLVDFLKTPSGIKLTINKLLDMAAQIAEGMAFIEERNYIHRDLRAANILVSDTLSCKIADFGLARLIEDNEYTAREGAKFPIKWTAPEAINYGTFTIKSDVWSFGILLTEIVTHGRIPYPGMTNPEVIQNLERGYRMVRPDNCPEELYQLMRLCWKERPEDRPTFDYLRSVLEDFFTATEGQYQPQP

`CC(C)S(=O)(=O)c1ccc2nccc(Nc3ccc4scnc4c3)c2c1` gave a residual activity [1] of 96.1%, a residual activity [2] of 17.4% and a residual activity [3] of 54.1%. For the same molecule, the residual activity [4] was 39.4%, the inhibition [5] was “Active” and the residual activity [6] was 101%. It also gave a residual activity [7] of 60.2%.
In the case of `Cc1cc(-c2cnc(N)c3c(-c4ccc5scnc5c4)csc23)n(C)n1`, the residual activity [1] is reported as 105%, the residual activity [2] is reported as 59.8% and the residual activity [3] is reported as 50.5%. For the same molecule, the residual activity [4] was 17.3%, the inhibition [5] was “Active” and the residual activity [6] was 93.8%. For the same molecule, the residual activity [7] was 56.3%.
For `CNC(=O)c1ccc2c(c1)ncn2-c1ccc(CC(=O)OC(C)(C)C)cc1`, the residual activity [1] was 84.2%, the residual activity [2] was 78.7% and the residual activity [3] was 91.3%. The residual activity [4] was 13.1%, the inhibition [5] was “inactive” and the residual activity [6] was 95.2%. For the same molecule, the residual activity [7] was 89.7%.
